Assay results published in patent US7387878B2, “Methods for DNA amplification and sequencing” (Yeda Research and Development Co. Ltd., priority 1998, dated 2008).
Values joined by “and” are separate entries in the source; they are usually repeats but may differ in a detail not shown here. Equal values may be shown once. “Also recorded” adds a separate entry of the source. Read-outs that look alike come from different tables or passages of the source.

Key:
mammalian cells = conditions: cited from earlier work
Taq DNA polymerase [1] = target: T1, Taq DNA polymerase (Thermus aquaticus, UniProt P19821); assay: Remaining activity of Taq polymerase after incubation at elevated temperatures; format: biochemical; conditions: for remaining Taq polymerase activity: 1M additive
T1 construct: purchased MBI Fermentas
T1 sequence (P19821 whole entry): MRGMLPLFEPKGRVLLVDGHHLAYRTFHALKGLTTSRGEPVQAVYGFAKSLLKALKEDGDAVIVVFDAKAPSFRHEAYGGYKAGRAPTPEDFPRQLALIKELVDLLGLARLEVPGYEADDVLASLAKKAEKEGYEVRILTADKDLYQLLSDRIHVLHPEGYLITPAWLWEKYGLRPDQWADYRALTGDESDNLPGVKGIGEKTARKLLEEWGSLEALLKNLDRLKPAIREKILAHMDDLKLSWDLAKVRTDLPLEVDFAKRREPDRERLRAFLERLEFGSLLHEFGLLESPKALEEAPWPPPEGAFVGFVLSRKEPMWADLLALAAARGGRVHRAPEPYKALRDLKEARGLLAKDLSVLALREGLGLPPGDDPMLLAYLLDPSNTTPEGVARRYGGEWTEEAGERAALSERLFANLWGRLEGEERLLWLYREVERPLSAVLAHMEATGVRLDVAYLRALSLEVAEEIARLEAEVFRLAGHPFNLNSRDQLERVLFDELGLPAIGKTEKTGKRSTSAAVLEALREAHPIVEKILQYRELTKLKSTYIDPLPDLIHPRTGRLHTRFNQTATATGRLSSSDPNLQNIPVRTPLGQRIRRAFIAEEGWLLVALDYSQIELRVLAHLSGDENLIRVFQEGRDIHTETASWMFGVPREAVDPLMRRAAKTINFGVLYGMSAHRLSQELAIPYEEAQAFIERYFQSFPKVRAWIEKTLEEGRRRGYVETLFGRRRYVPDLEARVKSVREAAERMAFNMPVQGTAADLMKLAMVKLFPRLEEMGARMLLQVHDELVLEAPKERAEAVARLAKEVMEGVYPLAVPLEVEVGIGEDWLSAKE
Protocol: THP(B), THP(A) or glycerol were added from 3M stock solutions (pH 8.8 at 25° C.). The reaction mixtures were overlaid with paraffin oil and incubated at 95° C. or 97° C. Aliquotes (7.5 μl) were taken for polymerase activity assay at different periods of time.

animals = conditions: cited from earlier work
Taq DNA polymerase [2] = target: T1, Taq DNA polymerase; conditions: DMSO in 10% concentration; cited from earlier work
DNA = conditions: for each 10% increase in glycerol concentration; cited from earlier work
Taq polymerase = Taq polymerase (Thermus aquaticus, UniProt P19821); conditions: 95-97° C.; cited from earlier work
Chain of Taq polymerase (P19821 whole entry): as above

Klenow DNA polymerase [3] = target: T2, Klenow DNA polymerase (Escherichia coli, UniProt P00582); assay: Klenow DNA polymerase activity assay at 37° C.; format: biochemical; conditions: for effect on Klenow polymerase activity: 1.0M additive, separate experiment, data not shown; for effect on Klenow DNA polymerase activity: 5.0M L-proline, 37° C., 6.7, 10.0 and 15.0 mM MgCl2
T2 construct: Klenow fragment of DNA polymerase I; purchased MBI Fermentas
T2 sequence (P00582 324-928): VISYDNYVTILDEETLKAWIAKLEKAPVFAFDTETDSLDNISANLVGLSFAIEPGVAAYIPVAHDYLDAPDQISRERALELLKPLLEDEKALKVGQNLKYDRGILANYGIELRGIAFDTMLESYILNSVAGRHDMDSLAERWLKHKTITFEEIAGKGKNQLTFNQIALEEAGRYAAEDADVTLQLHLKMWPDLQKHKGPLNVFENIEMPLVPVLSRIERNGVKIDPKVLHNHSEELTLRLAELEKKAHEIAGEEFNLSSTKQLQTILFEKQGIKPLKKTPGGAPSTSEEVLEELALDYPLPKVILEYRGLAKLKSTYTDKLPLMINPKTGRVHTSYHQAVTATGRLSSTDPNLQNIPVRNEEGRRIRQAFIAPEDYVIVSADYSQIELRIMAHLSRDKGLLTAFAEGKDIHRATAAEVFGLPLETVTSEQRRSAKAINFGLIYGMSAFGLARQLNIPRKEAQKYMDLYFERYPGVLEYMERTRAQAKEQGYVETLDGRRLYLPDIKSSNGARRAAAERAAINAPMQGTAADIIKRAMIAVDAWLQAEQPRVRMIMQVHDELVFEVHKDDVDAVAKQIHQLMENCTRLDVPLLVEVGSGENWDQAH
Protocol: (§1) Klenow fragment (0.1 units) was added to the microtubes with reaction mixture pre-heated to 37° C., and following 7.5 minutes incubation at 37° C. (a time-point within the region of linear kinetics determined in a separate experiment, not shown), the reaction microtubes were placed on ice, and the reaction was stopped by addition of 12 μl of 50 mM EDTA and then applied on strips of chromatographic paper (Whatman No. 3). Strips were washed three times by cold TCA 10%, dried and the radioactivity was counted.

[4] = test system: 349 b.p. fragment (66.5% GC) from Halobacterium marismortui genomic DNA; conditions: PCR with 10-15 units Klenow, denaturation 70° C., FIG. 12
[5] = test system: Micrococcus lysodeikticus DNA (72% GC); conditions: 6.2M proline
Protocol: (§2) DNA melting studies were conducted in a buffer (1 ml) containing 5.0 mM K2HPO4 and 0.1 mM Na2EDTA at pH 7.5. […] DNA samples were adjusted to O.D260=0.2 and incubated overnight at 37° C. before use, as previously described (Rees et al., 1993). […] The increase in absorbance at 260 nm was monitored in Hewlett Packard 9450A diode array spectrophotometer attached to a temperature programmer and controller. Both the sample and the reference cells were heated together at a rate of 0.5° C./min and the net absorbance was recorded after every 0.5° C. increase. The Tms were determined graphically from the midpoints of the absorbance versus temperature profile.

[6] = test system: 349 b.p. fragment (66.5% GC) from Halobacterium marismortui genomic DNA; conditions: 4.0M proline
Protocol: PCR was performed in 25 μl reaction mixture containing 250 ng of Halobacterium marismortui genomic DNA template, 0.12 nM of each 30-mer oligonucleotide primers 5 and 6 described in section (i) above, 0.3 μl of Klentaq1 and Pfu (or Vent) enzymes mixture, prepared as described (Barnes, 1994), 200 μM of each dNTP, in PCR buffer containing: 10 mM Tris-HCl (pH 8.3 at 25° C.) and 50 mM KCl. […] Reaction mixtures were preheated for 1 min at their respective denaturation temperatures, except for reactions performed at Td 95° C., that were preheated for 1 min at 94° C., and then subjected to 35 thermal cycles as follows: (I) 30 sec incubation at 72-95° C., as indicated in each experiment (denaturation step); (ii) 90 sec incubation at 37-55° C., as indicated in each experiment (primer annealing step); and (iii) 7 min incubation at 63-69° C., as indicated in each experiment (primer extension).
Reaction mixtures were preheated for 1 min at their respective denaturation temperatures (77° C. and 75° C.), and then subjected to 35 thermal cycles as follows: (i) 30 sec incubation at 77° C. or 75° C. (denaturation step); (ii) 90 sec incubation at 44° C. (primer annealing step); and (iii) 7 min incubation at 65° C. (primer extension).

calf thymus DNA (42% GC) = assay: DNA melting (absorbance at 260 nm), calf thymus DNA; conditions: 62° C. in aqueous solution
Protocol: as §2

[7] = test system: 349 b.p. fragment (66.5% GC) from Halobacterium marismortui genomic DNA; conditions: 1.0M proline
Protocol: PCR was performed in 25 μl reaction mixture containing 3 ng of Halobacterium marismortui genomic DNA template, 0.12 nM of each 28-mer oligonucleotide primers 3 and 4 described in section (i) above, 0.5 units of Taq DNA polymerase, 200 μM of each dNTP, in PCR buffer containing: 10 mM Tris-HCl (pH 8.8 at 25° C.), 50 mM KCl, 0.08% Nonidet P40. […] Reaction mixtures were preheated for 3 min at their respective denaturation temperatures, except for reactions performed at Td 95° C., that were preheated for 3 min at 94° C., and then subjected to 35 thermal cycles as follows: (I) 30 sec incubation at 91-95° C., as indicated in each experiment (denaturation step); (ii) 90 sec incubation at 55° C. (primer annealing step); and (iii) 60 sec incubation at 72° C. (primer extension).

Klenow DNA polymerase [8] = target: T2, Klenow DNA polymerase; assay: Remaining activity of Klenow DNA polymerase after incubation at 65° C.; format: biochemical; conditions: 5M proline
Protocol: as §1
The microtubes were vortexed and Klenow enzyme was added to the samples. The Klenow DNA polymerase activity assay was performed as described in section (iv) above at 6.7 mM concentration of MgCl2. To each aliquot (5 μl) 20 μl of stock solution containing all other components of the assay were added, making a total reaction volume of 25 μl and a 5-fold dilution of the aliquots.

[9] = test system: DNAs of varying base compositions; assay: DNA melting (absorbance at 260 nm), DNAs of varying base compositions
Protocol: as §2

poly(dA-dT) = assay: DNA melting (absorbance at 260 nm), poly(dA-dT)
Protocol: as §2

[10] = test system: [d(ATGCAT)]2 (SEQ ID NO:1); assay: Thermal transition of short oligonucleotide by 1H NMR chemical shift; conditions: for Tm: DNA alone 31.5
Protocol: (§3) ^1H NMR measurements were carried out on a Bruker AMX 400 NMR MHZ spectrometer at 400.13 MHZ (equipped with an Aspect 300 control). For the ^1H NMR measurements, 1.0 mM DNA oligonucleotides were dissolved in 0.5 ml phosphate buffer solution (pH 7.2) in D2O (20 mM, for [d(ATGCAT)]2 (SEQ ID NO:1) and 40 mM for [d([…])]2 (SEQ ID NO:2) containing 50 mM NaCl and 0.1 mM EDTA. The solutions were lyophilized and then redissolved in 0.5 ml D2O (99.96%), heated to 65 EC and gradually cooled to 5 EC, and then degassed with argon at room temperature.
(§4) The thermal transitions of the short oligonucleotides [d(ATGCAT)]2 (SEQ ID NO:1) (FIG. 4A) and [d([…])]2 (SEQ ID NO:2) (FIG. 4B) were studied in the absence (open squares) and presence of 0.5M (open circles) and 1.0M (filled squares) THP(B). NMR chemical shift changes of the C4H5 proton of [d(ATGCAT)]2 (SEQ ID NO:1) and of the G1H8 proton of [d([…])]2 (SEQ ID NO:2) were measured as a function of increasing temperatures as described in Materials and Methods section (iii).

[11] = test system: [d(GCTTAAGC)]2 (SEQ ID NO:2); assay: as above; conditions: for Tm: DNA alone 48.0
Protocol: as §3, §4

[12] = test system: 349 b.p. fragment (66.5% GC content) from Halobacterium marismortui genomic DNA; assay: PCR with THP(B) using Taq DNA polymerase; format: biochemical
Protocol: MgCl2 concentrations of 1.0 mM and 1.75 mM were used in the absence and presence of THP(B), respectively, added from a 3M stock solution (pH 8.8 at 25° C.). […] (primer extension).
PCR reaction was performed by Taq DNA polymerase as described in Materials and Methods, section (vii), using as a template whole genomic DNA of Halobacterium marismortui (66.5% GC) and the 28-mer primers 1 and 2 described in section (i).

T7 DNA polymerase = T7 DNA polymerase (Escherichia phage T7, UniProt P00581); conditions: 40% formamide; cited from earlier work
Chain of T7 DNA polymerase (P0AA25 2-109): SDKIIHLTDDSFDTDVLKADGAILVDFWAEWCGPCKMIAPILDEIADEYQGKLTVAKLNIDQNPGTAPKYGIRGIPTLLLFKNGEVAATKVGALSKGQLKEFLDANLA
Chain of T7 DNA polymerase (P00581 whole entry): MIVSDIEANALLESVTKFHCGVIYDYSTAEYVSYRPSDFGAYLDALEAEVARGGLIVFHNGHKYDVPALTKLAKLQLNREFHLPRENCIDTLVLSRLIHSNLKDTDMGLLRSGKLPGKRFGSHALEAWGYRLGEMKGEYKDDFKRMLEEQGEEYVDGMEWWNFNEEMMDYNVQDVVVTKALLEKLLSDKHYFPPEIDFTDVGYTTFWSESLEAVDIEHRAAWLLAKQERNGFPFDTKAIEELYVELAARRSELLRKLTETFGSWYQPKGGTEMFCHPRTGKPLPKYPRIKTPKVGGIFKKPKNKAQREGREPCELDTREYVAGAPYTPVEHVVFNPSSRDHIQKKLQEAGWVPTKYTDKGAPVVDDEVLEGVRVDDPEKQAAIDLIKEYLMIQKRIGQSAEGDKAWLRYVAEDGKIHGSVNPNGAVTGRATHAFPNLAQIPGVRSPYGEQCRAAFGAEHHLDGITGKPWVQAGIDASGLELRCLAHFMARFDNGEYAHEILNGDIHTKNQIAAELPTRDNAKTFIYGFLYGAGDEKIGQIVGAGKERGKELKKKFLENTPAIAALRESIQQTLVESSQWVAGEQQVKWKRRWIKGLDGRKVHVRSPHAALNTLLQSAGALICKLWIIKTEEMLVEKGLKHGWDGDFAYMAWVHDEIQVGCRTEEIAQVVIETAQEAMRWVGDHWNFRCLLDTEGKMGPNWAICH

[13] = 30 min incubation at 97° C., 10% without additives
[14] = 60 min incubation at 97° C., 5% or less without additives

CC1=NCC(O)C(C(=O)O)N1 (stereo not shown) [THP(A), 2-methyl-4-carboxy-5-hydroxy-3,4,5,6-tetrahydropyrimidine]
toxicity (mammalian cells; mammalian cells): not toxic | effectiveness in stabilizing Taq DNA polymerase (comparison) (Taq DNA polymerase [1]; 97° C., 1M additives, FIG. 5): more effective than THP(B) or glycerol | remaining Taq polymerase activity (Taq DNA polymerase [1]; [13]): 50% and 55% | remaining Taq activity relative to no additives (Taq DNA polymerase [1]; 60 min incubation at 97° C.): 10 fold | remaining Taq polymerase activity (Taq DNA polymerase [1]; [14]): 45% and 55% | toxicity (animals; animals): not toxic

C[S+](C)[O-] [DMSO]
inhibition of Taq DNA polymerase activity (Taq DNA polymerase [2]): 53%

OCC(O)CO [glycerol]
lowering of DNA melting temperatures (DNA): 2.5-3 °C | thermal stability of Taq polymerase (Taq polymerase): doubling | effect on Klenow polymerase activity (Klenow DNA polymerase [3]): stimulative

O=C(O)[C@@H]1CCCN1 [proline, L-Proline]
proline concentration sufficient to confer stability to Klenow polymerase (and conduct successful PCR) [4]: 3-5.5 M | range of melting higher than DNAs of GC content 42% and 26% [5]: about 5 °C | PCR performance ([6]; denaturation temperature 75° C.): but not at 75 °C | PCR performance ([6]; denaturation temperature 77° C.): enough for successful PCR | DNA melting temperature (calf thymus DNA (42% GC); 6.2M proline): 27 °C | PCR performance ([7]; denaturation temperature 91° C.): enabled successful PCR | PCR performance ([7]; denaturation temperature 95° C.): did not impair PCR performance | half life of Klenow DNA polymerase relative to no additive (Klenow DNA polymerase [8]): 30-50 fold | temperature range in which all DNAs melt ([9]; 6.2M proline, 38 to 78° C. in its absence): 25-32 °C | Tm values of the tested natural DNAs ([9]; 6.2 M proline, 57-78° C. without): 28-32 °C | effect on Klenow polymerase activity (Klenow DNA polymerase [3]): stimulative | effect on Klenow DNA polymerase activity (Klenow DNA polymerase [3]; listed as L-proline): only slightly decreased | effect on Klenow DNA polymerase activity (Klenow DNA polymerase [3]; listed as Proline): only slightly decrease | change in melting temperature of poly(dA-dT) (poly(dA-dT); 1-5M proline): did not exhibit any change | change in melting temperature of poly(dA-dT) (poly(dA-dT); 5-6.2M proline): small effect | melting lower than DNAs of GC content 42% and 26% (poly(dA-dT); 6.2M proline): about 15 °C

C[N+](C)(C)CC(=O)O [betaine, Betaine, reference compound]
Tm ([10]; 1.0 M additive): 29.2 °C | decrease of melting temperature ([11]; 1.0M additive): −2 EC

CC1=NCCC(C(=O)O)N1 (stereo not shown) [THP(B), 2-methyl-4-carboxy-3,4,5,6-tetrahydropyrimidine]
DNA melting temperature (calf thymus DNA (42% GC); 3 or 4M THP(B)): 41 °C | decrease of melting temperature ([10]; 0.5M additive): 2 EC | Tm ([10]; 0.5 M additive): 29.5 °C | decrease of melting temperature ([10]; 1.0M additive): 3.5 EC | Tm ([10]; 1.0 M additive): 28.0 °C | decrease of melting temperature ([11]; 0.5M additive): 3 EC | Tm ([11]; 0.5 M additive): 45.0 °C | decrease of melting temperature ([11]; 1.0M additive): 6 EC | Tm ([11]; 1.0 M additive): 42.0 °C | toxicity (mammalian cells): not toxic | temperature range in which all DNAs melt ([9]; 4M THP(B), 39 to 75° C. in its absence): 40-43 °C | remaining Taq polymerase activity (Taq DNA polymerase [1]; [13]): 40% | remaining Taq polymerase activity (Taq DNA polymerase [1]; [14]): 20% | toxicity (animals; in vivo): not toxic | PCR amplification ([12]; 0.5M THP(B), Td 92° C.): amplified sequences were produced only in the presence of THP(B) | yield and specificity of DNA amplification ([12]; 0.5M THP(B), Td 95° C. and 92° C.): improved | PCR amplification ([12]; 1.0M THP(B), Td 89° C., 0.5 units Taq): markedly lower | PCR amplification ([12]; 1.0M THP(B), Td 90° C., 0.5 or 0.75 units Taq): specific amplified sequence was generated only in the presence of THP(B) | PCR amplification ([12]; 1.0M THP(B), Td 95° C.): improved PCR specific amplification | change in melting temperature of poly(dA-dT) (poly(dA-dT); 1-4M THP(B)): did not exhibit any change; also recorded: no change

NC=O [formamide]
T7 DNA polymerase activity (T7 DNA polymerase): completely inactive
